Measurements reported in PMC6981454, “Promising 2,6,9-Trisubstituted Purine Derivatives for Anticancer Compounds: Synthesis, 3D-QSAR, and Preliminary Biological Assays” (International Journal of Molecular Sciences, 2019).
Like-named read-outs stand apart in the source and are kept apart here.

Tests used:
Type in all cases: cell-based, human
CACO2 = assay: MTT cytotoxicity assay, 72 h
Experimental: Cytotoxicity assays were performed by using the MTT reduction method as described in the literature [23, 37]. Briefly, cancer cell lines were plated in a flat-bottom 96-wells plate at 1 × 10^4 cells per well density. Then, the cells were incubated with synthetized compounds at different concentrations (from 0.1 to 100 µM) in 200 µL of 10% fetal bovine serum-RPMI or EMEM culture medium at 37 °C for 72 h. Then, 10 µL of MTT was added at a final concentration of 0.5 mg/mL, incubated at 37 °C for 4 h, and then solubilized with 10% sodium dodecyl sulphate (SDS) in 0.1 mM HCl and incubated overnight at 37 °C. Formazan formation was measured at 570 nm in a multi-well reader (StatFax 4200).

MRC-5 = assay: MTT cytotoxicity assay, 72 h, normal control cells; details: normal fibroblasts
Experimental: (§1) In our study, the human cancer cell lines used were CFAPC- 1 (pancreatic adenocarcinoma); NCI-H460 (large cell lung); HL-60 (acute promyelocytic leukaemia); CACO2 (colorectal adenocarcinoma); HCT-116 (colorectal carcinoma); K562 (chronic myeloid leukaemia); MCF-7 (breast adenocarcinoma); and MRC-5 control cells (normal fibroblasts).
(§2) CFAPC-1, NCI-H460 H1975, HL-60, HCT-116, CACO2, K562, MCF-7, and MCR-5 were grown and maintained in RPMI 1640 and DMEM F12 as appropriate with 10% fetal bovine serum, 100 UI/mL penicillin–streptomycin, and cultured al 37 °C in 5% CO2 humidified atmosphere. Control cultures were treated with dimethyl sulfoxide (1%) alone at the same concentration as in the purine derivatives treatment. Cell viability was determined by trypan blue dye exclusion. Cell numbers were counted in hemocytometer by light microscopy.
(§3) Cytotoxicity assays were performed by using the MTT reduction method as described in the literature. Briefly, cancer cell lines were plated in a flat-bottom 96-wells plate at 1 × 10^4 cells per well density. Then, the cells were incubated with synthetized compounds at different concentrations (from 0.1 to 100 µM) in 200 µL of 10% fetal bovine serum-RPMI or EMEM culture medium at 37 °C for 72 h. Then, 10 µL of MTT was added at a final concentration of 0.5 mg/mL, incubated at 37 °C for 4 h, and then solubilized with 10% sodium dodecyl sulphate (SDS) in 0.1 mM HCl and incubated overnight at 37 °C. Formazan formation was measured at 570 nm in a multi-well reader (StatFax 4200).

NCI-H460 = assay: MTT cytotoxicity assay, 72 h; details: for Experimental pIC50 (NCI-H460): -logIC50 in molar concentration
Experimental: as §1, §2, §3

HL-60 = assay: MTT cytotoxicity assay, 72 h; details: for Experimental pIC50 (HL-60): -logIC50 in molar concentration
Experimental: as §1, §2, §3

CFPAC-1 = assay: MTT cytotoxicity assay, 72 h
Experimental: as §1, §2, §3

MCF-7 = assay: MTT cytotoxicity assay, 72 h; details: for IC50: MTT, 72 h, IC50 ± SD
Experimental: as §1, §2, §3

HCT-116 = assay: MTT cytotoxicity assay, 72 h
Experimental: as §1, §2, §3

K562 = assay: MTT cytotoxicity assay, 72 h; details: for IC50: MTT, 72 h, IC50 ± SD
Experimental: as §1, §2, §3

HL-60 cells = assay: Cell viability by propidium iodide flow cytometry; details: HL-60, 50 μM, 24 h, PI staining
Text: Next, in order to determinate the cell death type induced by the most promising compounds, we performed a flow cytometry analysis of cell viability in cell line HL-60 treated with the most promising compounds (selected according to their IC50 values and SI). The HL-60 cancer cells were chosen due to their sensitivity to prepared compounds. […] As a preliminary apoptosis filter, propidium iodide (PI) staining was used through flow cytometry analysis which discriminated a population of viable cells impermeable to PI (PI negative) from necrotic cells PI-permeable (PI positive) and apoptotic cells (the difference of the previous two). The results are shown in Figure 7, illustrating that all purine derivatives tested induced apoptosis on HL-60 cells. Around 40% of apoptotic cells were detected in a culture treated with compounds 7a and 7i, 30% by 7e, 7g, and 7h and 70% by 7d and 7j. […] (For dot plots, see Supplementary Information Figures S1–S3.)
Cell viability was analyzed by flow cytometry as previously described. In this assay, after setting the baseline to exclude cell debris, cells impermeable to propidium iodide (PI negative) are considered as viable. Two populations of PI-permeable dead cells are distinguished based on fluorescence intensity, corresponding to either hypodiploid apoptotic cells or necrotic cells with intact DNA. Here, HL60 cells were incubated with concentrations of 50 µM of each compound for 24 h at 37 °C. Cells were harvested and stained with 10 µg/mL of propidium iodide to determine cell viability. Samples containing roughly 1 × 10^4 cells were evaluated by flow cytometry (FACScanto II; Becton Dickinson, Mountain View, CA) and analyzed using FCS Express v6 software. Three independent biological replicates were performed.

[1] = MTT, 72 h, IC50 ± SD, read-out: IC50 NCI-H460
[2] = MTT, 72 h, IC50 ± SD, read-out: IC50 HL-60
[3] = Homo sapiens, Caco-2, IC50 ± SD
[4] = Homo sapiens, NCI-H460, 72 h, MTT, 72 h, IC50 ± SD, read-out: IC50 NCI-H460
[5] = Homo sapiens, HL-60, 72 h, MTT, 72 h, IC50 ± SD, read-out: IC50 HL-60
[6] = Homo sapiens, HL-60, -logIC50 in molar concentration, Table S1, read-out: Experimental pIC50 (HL-60) (converted)
[7] = Homo sapiens, CFPAC-1, IC50 ± SD
[8] = Homo sapiens, HCT-116, IC50 ± SD

| SMILES | IC50 (CACO2; IC50 ± SD) [µM] | IC50 (MRC-5; IC50 ± SD) [µM] | IC50 (NCI-H460; [1]) [µM] | Experimental pIC50 (HL-60) (HL-60; Table S1) [M] | IC50 (HL-60; [2]) [µM] | IC50 (CFPAC-1; IC50 ± SD) [µM] | IC50 (MCF-7) [µM] | IC50 (HCT-116; IC50 ± SD) [µM] | IC50 (K562) [µM] | IC50 (CACO2; [3]) [µM] | IC50 (MRC-5; Homo sapiens, MRC5, IC50 ± SD) [µM] | IC50 (NCI-H460; [4]) [µM] | IC50 (CFPAC-1; [7]) [µM] | IC50 (MCF-7; Homo sapiens, MCF7, 72 h) [µM] | IC50 (HCT-116; [8]) [µM] | IC50 (K562; Homo sapiens, K562, 72 h) [µM] | further results |
| --- | --- | --- | --- | --- | --- | --- | --- | --- | --- | --- | --- | --- | --- | --- | --- | --- | --- |
| CCn1cnc2c(-c3ccc(OC(F)(F)F)cc3)nc(NCC3CCCCC3)nc21 [4c, N-(cyclohexylmethyl)-9-ethyl-6-(4-(trifluoromethoxy)phenyl)-9H-purin-2-amine] | > 100 | 60 ± 1 | 64 ± 2 | 4.6021 | 25 ± 5.4 | 67 ± 1 | > 25 | > 50 | > 25 | – | – | – | – | – | – | – | Experimental pIC50 (NCI-H460) (NCI-H460; Table S2): 4.1938 M |
| CCCn1cnc2c(-c3ccc(OC(F)(F)F)cc3)nc(NC3CCCC3)nc21 [4e, N-cyclopentyl-9-propyl-6-(4-(trifluoromethoxy)phenyl)-9H-purin-2-amine] | > 100 | > 100 | > 100 | 4.7447 | 18 ± 4 | > 100 | > 25 | > 50 | > 25 | – | – | – | – | – | – | – | – |
| CCCn1cnc2c(-c3ccc(OC(F)(F)F)cc3)nc(NC3CCCCC3)nc21 [4f, N-cyclohexyl-9-propyl-6-(4-(trifluoromethoxy)phenyl)-9H-purin-2-amine] | > 100 | 68 ± 1 | > 100 | 5.0088 | 9.8 ± 1.5 | 69 ± 1 | > 25 | > 50 | > 25 | – | – | – | – | – | – | – | – |
| CCCn1cnc2c(-c3ccc(OC(F)(F)F)cc3)nc(NCC3CCCCC3)nc21 [4g, N-(cyclohexylmethyl)-9-propyl-6-(4-(trifluoromethoxy)phenyl)-9H-purin-2-amine] | > 100 | > 100 | 72 ± 2 | 4.6778 | 21 ± 5 | 98 ± 5 | > 25 | > 50 | > 25 | – | – | – | – | – | – | – | Experimental pIC50 (NCI-H460) (NCI-H460; Table S2): 4.1427 M |
| CCCn1cnc2c(-c3ccc(OC(F)(F)F)cc3)nc(NC3CCCCCC3)nc21 [4h, N-cycloheptyl-9-propyl-6-(4-(trifluoromethoxy)phenyl)-9H-purin-2-amine] | – | – | – | – | – | – | – | – | – | > 100 | > 100 | > 100 | > 100 | > 25 | > 50 | > 25 | IC50 (HL-60; [5]): 14 ± 1 µM; IC50 (HL-60; [6]): 14 µM |
| O=[N+]([O-])c1ccc(N2CCN(c3nc(Cl)nc4c3ncn4C3CCCC3)CC2)nc1 [7a, 2-Chloro-9-cyclopentyl-6-(4-(5-nitropyridin-2-yl)piperazin-1-yl)-9H-purine] | – | – | 5.73 ± 0.37 | – | – | – | – | – | – | > 100 | > 100 | < 10 | > 100 | 0.95 ± 0.14 | 6.4 ± 1.3 | 0.87 ± 0.01 | IC50 (NCI-H460; Homo sapiens, NCI-H460, -logIC50 in molar concentration, Table S2, read-out: Experimental pIC50 (NCI-H460) (converted)): 5.73 µM; Selectivity Index (SI) MRC-5/NCI-H460 (NCI-H460; IC50 in MRC-5 / IC50 in NCI-H460): > 17.5; IC50 (HL-60; [6]): 2.1 µM; Selectivity Index (SI) MRC-5/HL-60 (HL-60; IC50 in MRC-5 / IC50 in HL-60): > 47.6; Selectivity Index (SI) MRC-5/MCF-7 (MCF-7; IC50 in MRC-5 / IC50 in MCF-7): > 105; Selectivity Index (SI) MRC-5/K562 (K562; IC50 in MRC-5 / IC50 in K562): > 115; apoptotic cells (HL-60 cells): Around 40% |
| Clc1nc(N2CCN(c3ccccn3)CC2)c2ncn(C3CCCC3)c2n1 [7b, 2-Chloro-9-cyclopentyl-6-(4-(pyridin-2-yl)piperazin-1-yl)-9H-purine] | – | – | – | – | – | – | – | – | – | > 100 | > 100 | > 100 | > 100 | 5.07 ± 0.9 | > 50 | 3.06 ± 0.54 | IC50 (HL-60; [5]): > 50 µM |
